# Structures can show the parent of a compound that is named as a salt.
# Key:
# Conditions in all cases: 72 h
# Calu-3 [1] = test: drug sensitivity score (DSS) for viability; higher = more toxic; extreme values may be limits of the assay
# Vero E6 [2] = test: as above
# U2OS [3] = test: as above
# Caco-2 [4] = test: as above
# Calu-3 [5] = test: relative viability EC50 (midpoint between 100% and the lowest measured viability); higher = less toxic
# Vero E6 [6] = test: as above
# U2OS [7] = test: as above
# Caco-2 [8] = test: as above
# Calu-3 [9] = test: cell viability relative to DMSO; higher = less toxic
# Vero E6 [10] = test: as above
# U2OS [11] = test: as above
# Caco-2 [12] = test: as above
# HepG2 [13] = test: drug sensitivity score (DSS) for viability; higher = more toxic; extreme values may be limits of the assay
# HepG2 [14] = test: relative viability EC50 (midpoint between 100% and the lowest measured viability); higher = less toxic
# HepG2 [15] = test: cell viability relative to DMSO; higher = less toxic
SMILES,drug sensitivity score (Calu-3 [1]),drug sensitivity score (Vero E6 [2]),drug sensitivity score (U2OS [3]),drug sensitivity score (Caco-2 [4]),relative viability EC50 (Calu-3 [5]) [µM],relative viability EC50 (Vero E6 [6]) [µM],relative viability EC50 (U2OS [7]) [µM],relative viability EC50 (Caco-2 [8]) [µM],cell viability (Calu-3 [9]; 1 nM) [%],cell viability (Calu-3 [9]; 10 nM) [%],cell viability (Calu-3 [9]; 100 nM) [%],cell viability (Calu-3 [9]; 1000 nM) [%],cell viability (Calu-3 [9]; 10000 nM) [%],cell viability (Vero E6 [10]; 1 nM) [%],cell viability (Vero E6 [10]; 10 nM) [%],cell viability (Vero E6 [10]; 100 nM) [%],cell viability (Vero E6 [10]; 1000 nM) [%],cell viability (Vero E6 [10]; 10000 nM) [%],cell viability (U2OS [11]; 1 nM) [%],cell viability (U2OS [11]; 10 nM) [%],cell viability (U2OS [11]; 100 nM) [%],cell viability (U2OS [11]; 1000 nM) [%],cell viability (U2OS [11]; 10000 nM) [%],cell viability (Caco-2 [12]; 1 nM) [%],cell viability (Caco-2 [12]; 10 nM) [%],cell viability (Caco-2 [12]; 100 nM) [%],cell viability (Caco-2 [12]; 1000 nM) [%],cell viability (Caco-2 [12]; 10000 nM) [%],drug sensitivity score (HepG2 [13]),relative viability EC50 (HepG2 [14]) [µM],cell viability (HepG2 [15]; 1 nM) [%],cell viability (HepG2 [15]; 10 nM) [%],cell viability (HepG2 [15]; 100 nM) [%],cell viability (HepG2 [15]; 1000 nM) [%],cell viability (HepG2 [15]; 10000 nM) [%]
COc1ccc(Cc2nc(O)c3c(C)nc([C@@H](CCCc4ccccc4)[C@@H](C)O)n3n2)cc1OC [BAY-60-7550],0,0,0,0,> 10,> 10,> 10,> 10,103,100,118,96.6,101,103,105,98.5,98.1,95.2,101,106,101,103,94.6,95.7,101,95.5,92.4,93.1,,,,,,,
O=C(CN1C(=O)C2(CCCC2)NC[C@H]1c1cc(F)cc(F)c1)Nc1ccc2c(c1)C[C@@]1(C2)C(=O)Nc2ncccc21 [MK-3207],0,,0,0,> 10,,> 10,> 10,96.6,92.9,98.2,93.4,109,,,,,,104,101,102,96.8,101,99,101,93,106,88.8,0,> 10,91.2,106,101,113,101
O=C1C(Cl)=C(N2CCOCC2)C(=O)N1c1ccc(Cl)c(Cl)c1 [RI-1],,0,0,0,,> 10,> 10,> 10,,,,,,102,95.5,97.7,97.1,107,89.2,97.2,96.8,96.7,101,97.2,94.9,93.2,106,110,0,> 10,98.9,107,103,97.3,98.6
[O-][S+](c1ccccc1)c1ccc2nnnn2n1 (stereo unspecified) [Ro-106-9920],1.9,6.4,6,4,,2.28,2.84,2.54,96.3,94.9,105,98.8,63.7,97.7,95.6,95.9,90.5,12.1,99.9,103,95,95.9,2.5,89.7,92.3,92.1,95.4,39.5,5.8,3.03,106,102,110,98.1,1.1
FC(F)(F)c1ccccc1-n1ccnc1 [TRIM],0,,0,0,> 10,,> 10,> 10,98.7,99.5,92.6,97,97.2,,,,,,99.6,97.8,103,95.7,103,106,104,98.6,93.5,108,0,> 10,96.7,110,108,103,89.5
Cc1cn(C[C@H](N)C(=O)O)c(=O)n(Cc2ccsc2C(=O)O)c1=O [UBP-310],,0,0,0,,> 10,> 10,> 10,,,,,,97.3,101,98.3,97.6,97.3,98.8,97.3,98.5,97,98.5,99.7,93.6,101,93,99.5,0,> 10,96.6,91.3,94.6,91.2,88.1
CN[C@H](CC(C)C)C(=O)N[C@H]1C(=O)N[C@@H](CC(N)=O)C(=O)N[C@H]2C(=O)N[C@H]3C(=O)N[C@H](C(=O)N[C@H](C(=O)O)c4cc(O)cc(O)c4-c4cc3ccc4O)[C@H](O)c3ccc(c(Cl)c3)Oc3cc2cc(c3O[C@@H]2O[C@H](CO)[C@@H](O)[C@H](O)[C@H]2O[C@H]2C[C@](C)(N)[C@H](O)[C@H](C)O2)Oc2ccc(cc2Cl)[C@H]1O [VANCOMYCIN HYDROCHLORIDE],,0,0,0,,> 10,> 10,> 10,,,,,,98.1,99.5,98.3,98.5,104,99.7,95.6,97.4,101,106,80.7,92.2,94.9,99.8,100,0,> 10,93.7,105,105,96.4,125
CCCCCCc1ccc(O)cc1O.Nc1c2ccccc2nc2ccccc12 [acrisorcin],2.5,6.8,4.5,3.3,,2.49,2.75,2.66,99.1,88.3,101,96.4,60.7,105,102,102,91.7,0.3,100,101,100,96.1,27.9,99.5,103,96.6,96.7,47.4,9,1.65,103,106,95.3,77.9,0.3
O=C(O)/C=C/c1ccc(-c2ccc(O)c(C34CC5CC(CC(C5)C3)C4)c2)cc1 [adarotene],9.4,8.3,15.5,12,0.854,,0.347,0.306,96.9,103,98.4,56.5,24.4,94,104,102,53.4,54.4,93.9,98.5,101,14.5,11.8,87.5,96.7,96.8,38,35.3,13.7,0.285,97.9,94.6,95.7,29.1,27.1
CC(C)[C@H](CO)Nc1nc(Nc2cc(N)cc(Cl)c2)c2ncn(C(C)C)c2n1 [aminopurvalanol-a],2.9,3.2,4.1,3.3,3.07,,2.75,3.2,98.4,87.7,101,99.3,47,99.7,102,96.9,95.3,53.3,94,99.7,101,96.5,34,101,97,98.5,100,38.2,3.2,3.54,101,99.3,93.8,105,34.6
O=C(/C=C/c1ccccc1)NCCO [brolitene],,0,0,0,,> 10,> 10,> 10,,,,,,104,103,99.4,104,100,107,109,102,104,99.2,102,103,95,93.5,95,0,> 10,107,104,99.3,98,102
CC(CCc1ccccc1)NC(C)C(O)c1ccc(O)cc1 (stereo unspecified) [buphenine],0,,0,0,> 10,,> 10,> 10,108,106,99.3,104,110,,,,,,101,100,100,94.6,99.1,90.4,102,92.2,92.5,90,0.1,> 10,98.8,100,95.9,89.7,91.3
O=C(O)c1cn(C2CC2)c2cc(N3CCNCC3)c(F)cc2c1=O [ciprofloxacin],,0,0,0.4,,> 10,> 10,> 10,,,,,,102,97.8,102,91.8,97.1,100,97.8,98,96.4,103,112,100,108,112,79.1,0,> 10,106,104,114,78.1,99.8
CC[C@H]1OC(=O)[C@H](C)[C@@H](O[C@H]2C[C@@](C)(OC)[C@@H](O)[C@H](C)O2)[C@H](C)[C@@H](O[C@@H]2O[C@H](C)C[C@H](N(C)C)[C@H]2O)[C@](C)(OC)C[C@@H](C)C(=O)[C@H](C)[C@@H](O)[C@]1(C)O [clarithromycin],0,,0,0,> 10,,> 10,> 10,93.1,107,94.5,104,99.5,,,,,,99.3,102,102,96.1,98.7,102,103,112,100,90.7,0,> 10,104,104,108,98,99.8

# From the supplement of paper PMC13380429
